Patent US12178811B2, “Methods of treating depressive disorders” (priority 2019, dated 2024)
Where “and” joins values, the source holds several entries; their conditions need not be identical. Equal entries are not always repeated. Where two headings read alike, the source gives them in different places.

Assays:
[1] = system: male CD-1 mice; test: Mouse forced swim test; type: in vivo; settings: for Latency to Immobility / Time Immobile 0-2 min / Time Immobile 0-6 min / Time Immobile 2-6 min: 30 min pretreatment, individual animals; for Latency to Immobility, Average / Time Immobile 0-2 min, Average / Time Immobile 0-6 min, Average / Time Immobile 2-6 min, Average: group average N = 10
Procedure: Objective: A study was performed to assess the potential efficacy of Compound A using the mouse forced swim test. The forced swim test is a model of behavioral despair, and is sensitive to detection of various classes of antidepressant drugs (Can et al., The Mouse Forced Swim Test. J. Vis. Exp. 2012 (59), e3638, DOI:10.3791/3638). Study Design: Forty (40) male CD-1 mice received a 1-week period of acclimation to the test facility prior to the commencement of testing (events summarized in Table 1). […] All animal use procedures were performed in accordance with the principles of the Canadian Council on Animal Care (CCAC). Formulation of Compound A: Compound A (99.4% pure) was weighed (no correction for purity) and dissolved in DMSO at 20× the intended final concentration. The 20×DMSO stock solution of Compound A was diluted 20 fold with 0.5% methyl cellulose in water to achieve the final desired concentration. […] The above formulation was kept at room temperature and stirred continuously or vortex mixed prior to each dose administration. Forced swim test: Forty (40) male CD-1 mice received the appropriate dose of the vehicle, test article, or positive control (treatments summarized in Table 3). Following a pre-determined pre-treatment time (Can et al., 2012), animals were gently placed into tall glass cylinders filled with water (20-25° C.). […] The swim test involved scoring the duration of immobility. Over a 6-minute test session, the latency to first immobility was recorded (in seconds). […] Statistical Analysis: The results in Table 4 were tested for significance using T-, univariate, and Dunnett's tests as shown in Tables 5-14.

[2] = Blood and brain collection after forced swim test (total brain-to-plasma ratio); type: in vivo; settings: CD-1, brain and plasma, mouse, immediately following the forced swim test, read-out: total brain-to-plasma ratio (B/P ratio)
Procedure: Blood and Brain Collection: Immediately following the forced swim test, all animals dosed with test article were anesthetized with isoflurane inhalant, and terminal blood collection (˜1 ml) was performed via cardiac puncture into potassium EDTA blood collection tubes (SOP ROD.14.02). Plasma was isolated from whole blood by centrifugation at 3000 rpm at 4° C. for 5 minutes. Once isolated, plasma was placed in cryovials and frozen at −80° C. until shipment for bioanalysis. Following blood collection, animals were decapitated and the whole brain collected as per standard operating procedure (SOP ROD.59). Brains were weighed, flash frozen, and stored at −80° C. until shipment.

SMILES: Cc1cc(N2CCc3cc(F)ccc3C2)cc(C)c1NC(=O)CC(C)(C)C [Compound A, N-[4-(6-fluoro-3,4-dihydro-1H-isoquinolin-2-yl)-2,6-dimethylphenyl]-3,3-dimethylbutanamide]
- Latency to Immobility ([1]; Compound A 1 mg/kg IP): 77 s and 84 s and 206 s and 100 s and 70 s and 109 s and 144 s and 105 s and 130 s and 80 s
- Time Immobile 0-2 min ([1]; Compound A 1 mg/kg IP): 32 sec and 28 sec and 0 sec (3×) and 16 sec and 20 sec (2×) and 4 sec and 7 sec
- Time Immobile 0-6 min ([1]; Compound A 1 mg/kg IP): 174 s and 198 s and 33 s and 125 s and 169 s and 196 s and 134 s and 141 s and 170 s
- Time Immobile 2-6 min ([1]; Compound A 1 mg/kg IP): 142 s and 170 s and 33 s and 109 s and 149 s and 192 s and 134 s and 189 s and 141 s and 150 s
- Latency to Immobility, Average ([1]; Compound A 1 mg/kg IP): 110.5 s
- Time Immobile 0-2 min, Average ([1]; Compound A 1 mg/kg IP): 12.7 s
- Time Immobile 0-6 min, Average ([1]; Compound A 1 mg/kg IP): 153.6 s
- Time Immobile 2-6 min, Average ([1]; Compound A 1 mg/kg IP): 140.9 s
- Latency to Immobility ([1]; Compound A 3 mg/kg IP): 135 s and 165 s and 155 s and 86 s and 150 s and 127 s and 192 s and 162 s and 83 s and 105 s
- Time Immobile 0-2 min ([1]; Compound A 3 mg/kg IP): 0 sec (7×) and 23 sec and 21 sec and 15 sec
- Time Immobile 0-6 min ([1]; Compound A 3 mg/kg IP): 166 s and 144 s and 122 s and 207 s and 82 s and 146 s and 101 s and 90 s and 184 s and 181 s
- Time Immobile 2-6 min ([1]; Compound A 3 mg/kg IP): 166 s and 144 s and 122 s and 184 s and 82 s and 146 s and 101 s and 90 s and 163 s
- Latency to Immobility, Average ([1]; Compound A 3 mg/kg IP): 136.0 s
- Time Immobile 0-2 min, Average ([1]; Compound A 3 mg/kg IP): 5.9 s
- Time Immobile 0-6 min, Average ([1]; Compound A 3 mg/kg IP): 142.3 s
- Time Immobile 2-6 min, Average ([1]; Compound A 3 mg/kg IP): 136.4 s
- effect in the mouse forced swim test model (in words) ([1]; Tables 5-13): statistically significant effects
- Kp at 36 min ([2]; 1 mg/kg IP): 2.2
- Kp at 36 min ([2]; 3 mg/kg IP): 2.2
